17 compounds from US9662323B2, “Compounds having muscarinic receptor antagonist and beta2 adrenergic receptor agonist activity” (CHIESI FARMACEUTICI S.p.A., priority 2015, dated 2017) can be followed below.

For orientation: Ki means a measure of affinity in units of concentration, obtained from inhibition or displacement.

The target of one assay is T1, Human M3 receptor (Homo sapiens, UniProt P20309).
T1 construct: purchased Perkin Elmer
Nature of the assay: M3 Receptor Radioligand Binding Assay. The settings on record: human M3 receptor membranes, [3H]-N-methyl scopolamine; read-out: M3 binding affinity (Ki class). Here is the method:
Biological Characterization M3 Receptor Radioligand Binding Assay
The assay was carried out in 96-well polypropylene plates in a volume of 250 ul. […] The final assay concentration of DMSO was 0.5% (v/v). The plates were sealed and incubated for 2 h at room temperature on an orbital shaker (slow speed). Membranes were harvested onto 96-well unifilter GF/C filter plates pre-treated with 0.5% polyethyleneimine (v/v), using a filter manifold, washed four times with 200 ul of assay buffer. The plates were dried before addition of 50 μl of microscint-0, sealed then read in a Trilux Microbeta scintillation counter.

Another assay deals with T2, Human β2 adrenoceptor (Homo sapiens, UniProt P07550).
T2 construct: purchased Perkin Elmer
Nature of the assay: β2 Adrenoceptor Radioligand Binding Assay. To be noted: human β2 adrenoceptor membranes, 125-I Cyanopindolol; read-out: B2 binding affinity (Ki class). The method, then: β2 Adrenoceptor Radioligand Binding Assay
The assay was carried out in 96-well polypropylene plates in a volume of 200 ul. The assay buffer used was 25 mM HEPES, 0.5% BSA (w/v), 1 mM EDTA, 0.02% ascorbic acid (v/v), (pH 7.4). The final assay concentration of DMSO was 0.5% (v/v). The plates were sealed and incubated for 1 h at room temperature on an orbital shaker (slow speed). Membranes were harvested onto 96-well unifilter GF/C filter plates pre-treated with 0.5% polyethyleneimine (v/v), using a filter manifold, washed six times with 200 ul of wash buffer containing 10 mM HEPES and 500 mM NaCl. The plates were dried before addition of 50 μl of microscint-0, sealed then read in a Trilux Microbeta scintillation counter. IC50 values are determined from competition curves using a non-linear curve fitting program. Ki values were calculated from IC50 values by the Cheng and Prusoff equation.

T1 sequence (P20309 whole entry): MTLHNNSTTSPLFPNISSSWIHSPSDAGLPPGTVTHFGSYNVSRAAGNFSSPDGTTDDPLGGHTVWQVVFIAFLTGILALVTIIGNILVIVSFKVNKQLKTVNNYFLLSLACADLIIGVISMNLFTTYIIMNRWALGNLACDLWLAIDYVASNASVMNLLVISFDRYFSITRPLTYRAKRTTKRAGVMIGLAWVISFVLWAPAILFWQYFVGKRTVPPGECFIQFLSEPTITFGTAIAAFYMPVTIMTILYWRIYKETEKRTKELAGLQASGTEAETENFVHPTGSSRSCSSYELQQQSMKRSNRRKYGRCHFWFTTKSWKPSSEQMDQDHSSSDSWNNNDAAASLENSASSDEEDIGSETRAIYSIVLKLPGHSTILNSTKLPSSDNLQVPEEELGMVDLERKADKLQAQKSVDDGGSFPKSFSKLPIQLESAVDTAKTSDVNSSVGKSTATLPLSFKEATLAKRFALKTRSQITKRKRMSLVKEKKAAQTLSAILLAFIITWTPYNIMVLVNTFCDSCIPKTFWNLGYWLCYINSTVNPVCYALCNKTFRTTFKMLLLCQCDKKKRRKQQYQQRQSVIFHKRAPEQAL
T2 sequence (P07550 whole entry): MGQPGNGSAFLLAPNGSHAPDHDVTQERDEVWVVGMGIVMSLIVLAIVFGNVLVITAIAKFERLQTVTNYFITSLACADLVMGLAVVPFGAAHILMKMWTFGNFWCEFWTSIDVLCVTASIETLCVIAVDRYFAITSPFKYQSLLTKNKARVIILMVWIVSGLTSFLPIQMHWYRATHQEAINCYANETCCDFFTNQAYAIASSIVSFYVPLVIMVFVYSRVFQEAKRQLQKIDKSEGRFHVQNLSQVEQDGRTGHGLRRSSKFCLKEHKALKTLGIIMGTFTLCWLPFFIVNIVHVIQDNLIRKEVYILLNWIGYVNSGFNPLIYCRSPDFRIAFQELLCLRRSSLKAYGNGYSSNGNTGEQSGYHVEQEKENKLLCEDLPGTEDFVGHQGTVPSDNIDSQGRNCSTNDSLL

Take `O=C(c1ccc(OCc2ccc(CNC[C@H](O)c3ccc(O)c4[nH]c(=O)ccc34)cc2)cc1)N1CC(C(=O)O[C@H]2CN3CCC2CC3)(c2ccccc2)C1` [Compound 8A, (R)-Quinuclidin-3-yl 1-(4-((4-((((R)-2-hydroxy-2-(8-hydroxy-2-oxo-1,2-dihydroquinolin-5-yl)ethyl)amino)methyl)benzyl)oxy)benzoyl)-3-phenylazetidine-3-carboxylate]: the Ki on Human M3 receptor and at Human β2 adrenoceptor was under 1 nM in each case.

As to `O=C(c1ccc(OCCCCCNC[C@H](O)c2ccc(O)c3[nH]c(=O)ccc23)c(F)c1)N1CCC(C(=O)O[C@H]2CN3CCC2CC3)(c2ccccc2)CC1` [Compound 9, (R)-Quinuclidin-3-yl 1-(3-fluoro-4-((5-(((R)-2-hydroxy-2-(8-hydroxy-2-oxo-1,2-dihydroquinolin-5-yl)ethyl)amino)pentyl)oxy)benzoyl)-4-phenylpiperidine-4-carboxylate], the figures for the Ki at Human M3 receptor and at Human β2 adrenoceptor were 1 to 10 nM and over 10 nM, respectively.

For `O=C(NCc1ccc(CNC[C@H](O)c2ccc(O)c3[nH]c(=O)ccc23)cc1)c1ccc(C(=O)N2CC(C(=O)O[C@H]3CN4CCC3CC4)(c3ccccc3)C2)cc1` [Compound 9A, (R)-Quinuclidin-3-yl 1-(4-((4-((((R)-2-hydroxy-2-(8-hydroxy-2-oxo-1,2-dihydroquinolin-5-yl)ethyl)amino)methyl)benzyl)carbamoyl)benzoyl)-3-phenylazetidine-3-carboxylate], the Ki on Human M3 receptor was under 1 nM; at Human β2 adrenoceptor, 1 to 10 nM.

For `Cc1cc(C(=O)N2CCC(C(=O)O[C@H]3CN4CCC3CC4)(c3ccccc3)CC2)ccc1OCCCCCNC[C@H](O)c1ccc(O)c2[nH]c(=O)ccc12` [Compound 10, (R)-Quinuclidin-3-yl 1-(4-((5-(((R)-2-hydroxy-2-(8-hydroxy-2-oxo-1,2-dihydroquinolin-5-yl)ethyl)amino)pentyl)oxy)-3-methylbenzoyl)-4-phenylpiperidine-4-carboxylate], the Ki is 1 to 10 nM on Human M3 receptor and under 1 nM on Human β2 adrenoceptor.

Take `O=C(NCCCCNC[C@H](O)c1ccc(O)c2[nH]c(=O)ccc12)c1ccc(C(=O)N2CC(C(=O)O[C@H]3CN4CCC3CC4)(c3ccccc3)C2)cc1` [Compound 10A, (R)-Quinuclidin-3-yl 1-(4-((4-(((R)-2-hydroxy-2-(8-hydroxy-2-oxo-1,2-dihydroquinolin-5-yl)ethyl)amino)butyl)carbamoyl)benzoyl)-3-phenylazetidine-3-carboxylate]: the Ki on Human M3 receptor is 1 to 10 nM; on Human β2 adrenoceptor, under 1 nM.

`O=C(Cc1cccc(OCCCCCNC[C@H](O)c2ccc(O)c3[nH]c(=O)ccc23)c1)N1CCC(C(=O)O[C@H]2CN3CCC2CC3)(c2ccccc2)CC1` [Compound 11, (R)-Quinuclidin-3-yl 1-(2-(3-((5-(((R)-2-hydroxy-2-(8-hydroxy-2-oxo-1,2-dihydroquinolin-5-yl)ethyl)amino)pentyl)oxy)phenyl)acetyl)-4-phenylpiperidine-4-carboxylate]: the results for the Ki at Human M3 receptor and on Human β2 adrenoceptor were 1 to 10 nM and under 1 nM, respectively.

For `O=C(NCCCCNC[C@H](O)c1ccc(O)c2[nH]c(=O)ccc12)c1ccc(C(=O)N2CC(C(=O)O[C@H]3CN4CCC3CC4)(c3ccccc3)C2)s1` [Compound 11A, (R)-Quinuclidin-3-yl 1-(5-((4-(((R)-2-hydroxy-2-(8-hydroxy-2-oxo-1,2-dihydroquinolin-5-yl)ethyl)amino)butyl)carbamoyl)thiophene-2-carbonyl)-3-phenylazetidine-3-carboxylate], the Ki is 1 to 10 nM at Human M3 receptor and under 1 nM on Human β2 adrenoceptor.

In the case of `Cc1cc(CC(=O)N2CCC(C(=O)O[C@H]3CN4CCC3CC4)(c3ccccc3)CC2)ccc1OCCCCCNC[C@H](O)c1ccc(O)c2[nH]c(=O)ccc12` [Compound 12, (R)-Quinuclidin-3-yl 1-(2-(4-((5-(((R)-2-hydroxy-2-(8-hydroxy-2-oxo-1,2-dihydroquinolin-5-yl)ethyl)amino)pentyl)oxy)-3-methylphenyl)acetyl)-4-phenylpiperidine-4-carboxylate], the Ki was 1 to 10 nM on Human M3 receptor and over 10 nM at Human β2 adrenoceptor.

With `CCN(CCCNC[C@H](O)c1ccc(O)c2[nH]c(=O)ccc12)C(=O)c1ccc(CCC(=O)N2CC(C(=O)O[C@H]3CN4CCC3CC4)(c3ccccc3)C2)cc1` [Compound 12A, (R)-Quinuclidin-3-yl 1-(3-(4-(ethyl(3-(((R)-2-hydroxy-2-(8-hydroxy-2-oxo-1,2-dihydroquinolin-5-yl)ethyl)amino)propyl)carbamoyl)phenyl)propanoyl)-3-phenylazetidine-3-carboxylate], the Ki on Human M3 receptor and at Human β2 adrenoceptor was 1 to 10 nM in each case.

As to `O=C(Cc1ccc(OCCCCCNC[C@H](O)c2ccc(O)c3[nH]c(=O)ccc23)c(F)c1)N1CCC(C(=O)O[C@H]2CN3CCC2CC3)(c2ccccc2)CC1` [Compound 13, (R)-Quinuclidin-3-yl 1-(2-(3-fluoro-4-((5-(((R)-2-hydroxy-2-(8-hydroxy-2-oxo-1,2-dihydroquinolin-5-yl)ethyl)amino)pentyl)oxy)phenyl)acetyl)-4-phenylpiperidine-4-carboxylate], the Ki is under 1 nM at Human M3 receptor and over 10 nM at Human β2 adrenoceptor.

For `O=C(CCc1ccc(OCc2ccc(CNC[C@H](O)c3ccc(O)c4[nH]c(=O)ccc34)cc2)cc1)N1CC(C(=O)O[C@H]2CN3CCC2CC3)(c2ccccc2)C1` [Compound 13A, (R)-Quinuclidin-3-yl 1-(3-(4-((4-((((R)-2-hydroxy-2-(8-hydroxy-2-oxo-1,2-dihydroquinolin-5-yl)ethyl)amino)methyl)benzyl)oxy)phenyl)propanoyl)-3-phenylazetidine-3-carboxylate], the inhibition constant Ki on Human M3 receptor and at Human β2 adrenoceptor was 1 to 10 nM each time.

Take `O=C(Cc1ccc(OCCCCCNC[C@H](O)c2ccc(O)c3[nH]c(=O)ccc23)c(-c2ccsc2)c1)N1CCC(C(=O)O[C@H]2CN3CCC2CC3)(c2ccccc2)CC1` [Compound 14, (R)-Quinuclidin-3-yl 1-(2-(4-((5-(((R)-2-hydroxy-2-(8-hydroxy-2-oxo-1,2-dihydroquinolin-5-yl)ethyl)amino)pentyl)oxy)-3-(thiophen-3-yl)phenyl)acetyl)-4-phenylpiperidine-4-carboxylate]: the inhibition constant (Ki) on Human M3 receptor is 1 to 10 nM; at Human β2 adrenoceptor it was under 1 nM.

With `O=C(Cc1ccc(CC(=O)N2CC(C(=O)O[C@H]3CN4CCC3CC4)(c3ccccc3)C2)cc1)N(CCCNC[C@H](O)c1ccc(O)c2[nH]c(=O)ccc12)Cc1ccccc1` [Compound 14A, (R)-Quinuclidin-3-yl 1-(2-(4-(2-(benzyl(3-(((R)-2-hydroxy-2-(8-hydroxy-2-oxo-1,2-dihydroquinolin-5-yl)ethyl)amino)propyl)amino)-2-oxoethyl)phenyl)acetyl)-3-phenylazetidine-3-carboxylate], the Ki on Human M3 receptor and on Human β2 adrenoceptor was under 1 nM in each case.

With `O=C(Cc1ccc(OCCCCCNC[C@H](O)c2ccc(O)c3[nH]c(=O)ccc23)c(-c2ccccc2)c1)N1CCC(C(=O)O[C@H]2CN3CCC2CC3)(c2ccccc2)CC1` [Compound 15, (R)-Quinuclidin-3-yl 1-(2-(6-((5-(((R)-2-hydroxy-2-(8-hydroxy-2-oxo-1,2-dihydroquinolin-5-yl)ethyl)amino)pentyl)oxy)-[1,1′-biphenyl]-3-yl)acetyl)-4-phenylpiperidine-4-carboxylate], the values for the Ki on Human M3 receptor and on Human β2 adrenoceptor were over 10 nM and under 1 nM, respectively.

On to `O=C(Cc1ccc(OCc2ccc(CNC[C@H](O)c3ccc(O)c4[nH]c(=O)ccc34)cc2)cc1)N1CC(C(=O)O[C@H]2CN3CCC2CC3)(c2ccccc2)C1` [Compound 15A, (R)-Quinuclidin-3-yl 1-(2-(4-((4-((((R)-2-hydroxy-2-(8-hydroxy-2-oxo-1,2-dihydroquinolin-5-yl)ethyl)amino)methyl)benzyl)oxy)phenyl)acetyl)-3-phenylazetidine-3-carboxylate], for which the Ki on Human M3 receptor and on Human β2 adrenoceptor was under 1 nM in each case.

With `O=C(CCc1ccc(OCCCCCNC[C@H](O)c2ccc(O)c3[nH]c(=O)ccc23)c(-c2ccccc2)c1)N1CCC(C(=O)O[C@H]2CN3CCC2CC3)(c2ccccc2)CC1` [Compound 16, (R)-Quinuclidin-3-yl 1-(3-(6-((5-(((R)-2-hydroxy-2-(8-hydroxy-2-oxo-1,2-dihydroquinolin-5-yl)ethyl)amino)pentyl)oxy)-[1,1′-biphenyl]-3-yl)propanoyl)-4-phenylpiperidine-4-carboxylate], the results for the Ki at Human M3 receptor and on Human β2 adrenoceptor were 1 to 10 nM and under 1 nM, respectively.

With `O=C(NCc1ccc(CCNC[C@H](O)c2ccc(O)c3[nH]c(=O)ccc23)cc1)c1ccc(C(=O)N2CC(C(=O)O[C@H]3CN4CCC3CC4)(c3ccccc3)C2)cc1` [Compound 16A, (R)-Quinuclidin-3-yl 1-(4-((4-(2-(((R)-2-hydroxy-2-(8-hydroxy-2-oxo-1,2-dihydroquinolin-5-yl)ethyl)amino)ethyl)benzyl)carbamoyl)benzoyl)-3-phenylazetidine-3-carboxylate], the Ki on Human M3 receptor and at Human β2 adrenoceptor was under 1 nM throughout.
